The numbers were not newly measured in article PMC12845312, “Hydrazonylthiazole Derivatives as Dual EGFR and ALR2 Inhibitors: Design, Synthesis, and Comprehensive In Vitro and In Silico Evaluation for Potential Anticancer Activity” (Pharmaceuticals, 2025), which cites them from elsewhere.

The test system of one series is A549 cells. Further details: method as in doi:10.1016/j.molstruc.2024.139067. The note with it: read-out: IC50 against A549 cells; cited from earlier work.
For a further series, the target named is T1, EGFR (Homo sapiens, UniProt P00533).
T1 construct: purchased Promega V3831
The note with it: read-out: EGFR inhibition IC50 (converted); cited from earlier work.

The next series concerns MCF-7 cells. The note with it: read-out: IC50 against MCF-7 cells; cited from earlier work.

Structures are written as SMILES.

T1 sequence (P00533 25-1210): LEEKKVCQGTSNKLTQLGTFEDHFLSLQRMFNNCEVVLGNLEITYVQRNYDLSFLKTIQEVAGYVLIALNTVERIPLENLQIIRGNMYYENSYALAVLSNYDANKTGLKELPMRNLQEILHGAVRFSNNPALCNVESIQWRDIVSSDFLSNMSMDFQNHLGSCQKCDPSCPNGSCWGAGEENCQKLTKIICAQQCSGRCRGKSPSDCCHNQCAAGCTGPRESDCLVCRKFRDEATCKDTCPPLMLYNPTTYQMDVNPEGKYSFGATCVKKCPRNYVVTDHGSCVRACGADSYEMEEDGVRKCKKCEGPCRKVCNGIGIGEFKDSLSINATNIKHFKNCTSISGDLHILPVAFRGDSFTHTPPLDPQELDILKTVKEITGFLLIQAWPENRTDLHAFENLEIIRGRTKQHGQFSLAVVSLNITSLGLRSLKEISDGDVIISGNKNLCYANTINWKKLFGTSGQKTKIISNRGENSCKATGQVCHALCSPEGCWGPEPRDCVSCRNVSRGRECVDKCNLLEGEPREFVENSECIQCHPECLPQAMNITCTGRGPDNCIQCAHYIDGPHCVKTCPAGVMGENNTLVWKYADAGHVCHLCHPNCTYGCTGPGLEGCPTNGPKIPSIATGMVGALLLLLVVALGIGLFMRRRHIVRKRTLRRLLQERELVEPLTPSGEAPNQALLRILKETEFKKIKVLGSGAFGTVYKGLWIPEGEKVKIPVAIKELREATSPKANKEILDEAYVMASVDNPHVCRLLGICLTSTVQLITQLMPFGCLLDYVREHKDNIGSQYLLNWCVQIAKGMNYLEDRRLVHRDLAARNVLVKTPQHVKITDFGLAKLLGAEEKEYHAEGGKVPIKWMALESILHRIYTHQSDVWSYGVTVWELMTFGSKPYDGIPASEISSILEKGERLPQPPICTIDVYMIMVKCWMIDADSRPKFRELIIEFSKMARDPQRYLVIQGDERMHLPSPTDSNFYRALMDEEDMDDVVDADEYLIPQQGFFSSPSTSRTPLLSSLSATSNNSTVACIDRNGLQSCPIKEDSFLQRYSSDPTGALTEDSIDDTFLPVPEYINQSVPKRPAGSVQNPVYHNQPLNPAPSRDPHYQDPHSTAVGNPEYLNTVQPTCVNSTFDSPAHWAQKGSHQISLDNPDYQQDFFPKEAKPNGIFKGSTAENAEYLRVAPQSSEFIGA

For orientation: IC50 means the midpoint of a concentration-inhibition curve. Turning to `O=[N+]([O-])c1ccc(-c2csc(N/N=C/c3c4ccccc4cc4ccccc34)n2)cc1` [Compound A5], the figures for the IC50 with A549 cells, at EGFR and in the series on MCF-7 cells were 8.51 µM, 0.88 µM and 7 µM, respectively.
